Test results taken from PubChem BioAssay AID248 (DTP/NCI, 2004).
“And” between values parts separate entries of the source, which are not always exact repeats. Equal values may be shown once. Inconclusive results and toxic doses are left out. No stated cut-off is given here; in the data, active means T/C of 150% or more; inactive means T/C below 125%.

Tested on: L1210 leukemia ip in BDF1 mice, survival T/C
Assay: NCI In Vivo Anticancer Drug Screen. Data for tumor model L1210 Leukemia (intraperitoneal) in B6D2F1 (BDF1) mice
Settings: endpoint: mean survival time, higher = longer survival
Summary of the method: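 Survival endpoint. Drug-treated group vs vehicle group, expressed as T divided by C. Tumor passaged by transplantation.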

[1] = dose: 100.0 mg/kg/injection, schedule: Q01DX009 (ip), vehicle: saline with Tween-80
[2] = dose: 100.0 mg/kg/injection, schedule: Q04DX003 (ip), vehicle: saline with Tween-80
[3] = dose: 200.0 mg/kg/injection, schedule: Q01DX009 (ip), vehicle: saline with Tween-80
[4] = dose: 200.0 mg/kg/injection, schedule: Q04DX003 (ip), vehicle: saline with Tween-80
[5] = dose: 400.0 mg/kg/injection, schedule: Q04DX003 (ip), vehicle: saline with Tween-80
[6] = dose: 100.0 mg/kg/injection, schedule: Q01DX009 (ip), vehicle: Klucel (hydroxypropylcellulose) (HPC)
[7] = dose: 200.0 mg/kg/injection, schedule: Q01DX009 (ip), vehicle: Klucel (hydroxypropylcellulose) (HPC)
[8] = dose: 400.0 mg/kg/injection, schedule: Q01DX009 (ip), vehicle: Klucel (hydroxypropylcellulose) (HPC)
[9] = dose: 50.0 mg/kg/injection, schedule: Q04DX003 (ip), vehicle: saline with Tween-80
[10] = dose: 100.0 mg/kg/injection, schedule: Q01DX001 (ip), vehicle: saline
[11] = dose: 100.0 mg/kg/injection, schedule: Q04DX003 (ip), vehicle: saline
[12] = dose: 200.0 mg/kg/injection, schedule: Q04DX003 (ip), vehicle: saline
[13] = dose: 400.0 mg/kg/injection, schedule: Q04DX003 (ip), vehicle: saline
[14] = dose: 400.0 mg/kg/injection, schedule: Q04DX002 (ip), vehicle: Klucel (hydroxypropylcellulose) (HPC)

Measured: T/C

C=C(C)CNc1ccccc1
inactive: [1] 95 % of control | [2] 97 % of control | [3] 93 % of control | [4] 97 % of control | [5] 103 % of control

Cc1ccc([N+](=O)[O-])cc1NS(=O)(=O)c1cc(Cl)c(Cl)cc1Cl
inactive: [6] 95 % of control | [7] 108 % of control | [8] 90 % of control

CCCCCCCCCCCCCCCCOc1c(Br)cc(Br)cc1Br
inactive: dose: 100.0 mg/kg/injection, schedule: Q01DX001 (ip), vehicle: Klucel (hydroxypropylcellulose) (HPC) 87 % of control | dose: 200.0 mg/kg/injection, schedule: Q01DX001 (ip), vehicle: Klucel (hydroxypropylcellulose) (HPC) 90 % of control | dose: 400.0 mg/kg/injection, schedule: Q01DX001 (ip), vehicle: Klucel (hydroxypropylcellulose) (HPC) 105 % of control

C#CCOCC(CCl)OC(N)=O (stereo not drawn)
inactive: dose: 50.0 mg/kg/injection, schedule: Q01DX009 (ip), vehicle: saline with Tween-80 121 % of control | [9] 104 % of control | [1] 105 % of control | [2] 101 % of control | [3] 106 % of control | [4] 110 % of control

COc1cc2c(cc1OC)C(=O)Cc1ccc3c(c1CN(C)CC2)OCO3
inactive: [6] 95 % of control | [7] 95 % of control

Cc1cc2c3ccccc3c3ccccc3c2nn1
inactive: [10] 103 % of control | dose: 200.0 mg/kg/injection, schedule: Q01DX001 (ip), vehicle: saline 101 % of control | dose: 400.0 mg/kg/injection, schedule: Q01DX001 (ip), vehicle: saline 100 % of control

CC(=O)N1C=Cc2ccccc2C1C1c2ccccc2C=CN1C(C)=O (stereo not drawn)
inactive: dose: 100.0 mg/kg/injection, schedule: Q04DX003 (ip), vehicle: Klucel (hydroxypropylcellulose) (HPC) 98 % of control | dose: 200.0 mg/kg/injection, schedule: Q04DX003 (ip), vehicle: Klucel (hydroxypropylcellulose) (HPC) 96 % of control | dose: 400.0 mg/kg/injection, schedule: Q04DX003 (ip), vehicle: Klucel (hydroxypropylcellulose) (HPC) 93 % of control

N=c1ccn(CC(O)COc2ccccc2)cc1 (stereo not drawn)
inactive: [10] 102 % of control

O=C1/C(=C/c2cccc3ccccc23)CCc2ccccc21
inactive: dose: 100.0 mg/kg/injection, schedule: Q01DX001 (ip), vehicle: carboxymethylcellulose (CMC) 97 % of control | dose: 200.0 mg/kg/injection, schedule: Q01DX001 (ip), vehicle: carboxymethylcellulose (CMC) 95 % of control | dose: 400.0 mg/kg/injection, schedule: Q01DX001 (ip), vehicle: carboxymethylcellulose (CMC) 97 % of control

Cc1ccc([N+](=O)[O-])cc1NC(=O)Sc1ccc(C(C)(C)C)cc1C
inactive: dose: 100.0 mg/kg/injection, schedule: Q04DX002 (ip), vehicle: saline 101 % of control | dose: 200.0 mg/kg/injection, schedule: Q04DX002 (ip), vehicle: saline 88 % of control | dose: 400.0 mg/kg/injection, schedule: Q04DX002 (ip), vehicle: saline 101 % of control

CCCCCCCCCCCCCCCCCC[n+]1ccc(C(N)=O)cc1
inactive: [11] 91 % of control

N#Cc1cn(C2CCCCC2)c2ncccc12
inactive: dose: 25.0 mg/kg/injection, schedule: Q04DX003 (ip), vehicle: saline with Tween-80 90 % of control | [9] 97 % of control | [2] 93 % of control

Cc1c(NCO)c(=O)n(-c2ccccc2)n1C
inactive: [11] 118 % of control | [12] 94 % of control | [13] 112 % of control

CN1CCC=C(CN2c3ccccc3Sc3ccc(Cl)cc32)C1
inactive: dose: 12.5 mg/kg/injection, schedule: Q01DX009 (ip), vehicle: saline 119 % of control | dose: 12.5 mg/kg/injection, schedule: Q04DX003 (ip), vehicle: saline 101 % of control | dose: 16.5 mg/kg/injection, schedule: Q04DX003 (ip), vehicle: saline 98 % of control | dose: 25.0 mg/kg/injection, schedule: Q01DX009 (ip), vehicle: saline 113 % of control | dose: 25.0 mg/kg/injection, schedule: Q04DX003 (ip), vehicle: saline 105 % of control | dose: 37.5 mg/kg/injection, schedule: Q04DX003 (ip), vehicle: saline 105 % of control | dose: 50.0 mg/kg/injection, schedule: Q01DX009 (ip), vehicle: saline 114 % of control | dose: 50.0 mg/kg/injection, schedule: Q04DX003 (ip), vehicle: saline 110 % of control

CCOC1c2ccccc2-c2ccccc2N1C(=O)c1ccccc1 (stereo not drawn)
inactive: [9] 98 % of control | [2] 106 % of control | [4] 97 % of control and 109 % of control | [5] 103 % of control

COc1ccc(C(=O)c2cnc(C)n2Cc2ccccc2)cc1
inactive: [6] 106 % of control | [7] 106 % of control | [8] 114 % of control

CCCCCCC(=O)N(CC)C(=NCC)c1ccc(NC(=O)c2ccc(C(=O)Nc3ccc(C(=NCC)N(CC)C(=O)CCCCCC)cc3)cc2)cc1
inactive: dose: 3.75 mg/kg/injection, schedule: Q01DX015 (ip), vehicle: methylcellulose (MC) 98 % of control | dose: 7.5 mg/kg/injection, schedule: Q01DX015 (ip), vehicle: methylcellulose (MC) 101 % of control | dose: 15.0 mg/kg/injection, schedule: Q01DX015 (ip), vehicle: methylcellulose (MC) 98 % of control | dose: 30.0 mg/kg/injection, schedule: Q01DX015 (ip), vehicle: methylcellulose (MC) 90 % of control | dose: 62.0 mg/kg/injection, schedule: Q01DX015 (ip), vehicle: methylcellulose (MC) 93 % of control | dose: 125.0 mg/kg/injection, schedule: Q01DX015 (ip), vehicle: methylcellulose (MC) 90 % of control | dose: 250.0 mg/kg/injection, schedule: Q01DX015 (ip), vehicle: methylcellulose (MC) 87 % of control | dose: 500.0 mg/kg/injection, schedule: Q01DX015 (ip), vehicle: methylcellulose (MC) 86 % of control

O=C(CCC(=O)Oc1ccc(S(=O)(=O)F)cc1)Oc1ccc(S(=O)(=O)F)cc1
inactive: [11] 92 % of control | [12] 118 % of control | [13] 103 % of control

Cc1nc(N)[nH]c(=O)c1CCCNS(=O)(=O)c1ccc(C(=O)O)cc1
inactive: dose: 200.0 mg/kg/injection, schedule: Q04DX002 (ip), vehicle: Klucel (hydroxypropylcellulose) (HPC) 88 % of control | [14] 112 % of control

CC1CCCC(C)N1C1=NCCO1 (stereo not drawn)
inactive: dose: 5.0 mg/kg/injection, schedule: Q01DX009 (ip), vehicle: saline with Tween-80 95 % of control | dose: 10.0 mg/kg/injection, schedule: Q01DX009 (ip), vehicle: saline with Tween-80 97 % of control | dose: 20.0 mg/kg/injection, schedule: Q01DX009 (ip), vehicle: saline with Tween-80 95 % of control

CC(C)(C)OC(=O)NN=C1CCC(C(C)(C)C)CC1 (stereo not drawn)
inactive: dose: 100.0 mg/kg/injection, schedule: Q04DX003 (ip), vehicle: acetone 98 % of control | dose: 200.0 mg/kg/injection, schedule: Q04DX003 (ip), vehicle: acetone 96 % of control | dose: 400.0 mg/kg/injection, schedule: Q04DX003 (ip), vehicle: acetone 93 % of control

O=[N+]([O-])c1ccc2cnn(CSP(=S)(c3ccccc3)c3ccccc3)c2c1
inactive: dose: 100.0 mg/kg/injection, schedule: Q01DX001 (ip), vehicle: other 93 % of control | dose: 200.0 mg/kg/injection, schedule: Q01DX001 (ip), vehicle: other 101 % of control | dose: 400.0 mg/kg/injection, schedule: Q01DX001 (ip), vehicle: other 101 % of control

CC(=O)Oc1c2ccccc2cc2ccccc12
inactive: dose: 100.0 mg/kg/injection, schedule: Q04DX002 (ip), vehicle: Klucel (hydroxypropylcellulose) (HPC) 114 % of control | [14] 118 % of control
